According to ChEMBL document CHEMBL3046265, “Synthesis, evaluation of antimicrobial activity, and molecular modeling of novel 2-((4-(2H-benzo[d] [1,2,3] triazol-2-yl)piperidin-1-yl)methyl)-5-substituted phenyl-1,3,4-oxadiazoles” (2013):

What was measured:
Format in all cases: functional
Conditions in all cases: read-out: IZ
Escherichia coli [1] = assay: Antibacterial activity against Escherichia coli at 900 ug/ml after overnight incubation
Klebsiella pneumoniae [2] = assay: Antibacterial activity against Klebsiella pneumoniae at 900 ug/ml after overnight incubation
Priestia megaterium [3] = assay: Antibacterial activity against Bacillus megaterium at 900 ug/ml after overnight incubation
Candida albicans [4] = assay: Antifungal activity against Candida albicans at 900 ug/ml after 48 hr
Fusarium oxysporum [5] = assay: Antifungal activity against Fusarium oxysporum at 1200 ug/ml after 48 hr
Exserohilum rostratum [6] = assay: Antifungal activity against Setosphaeria rostrata at 900 ug/ml after 48 hr
Enterococcus faecalis [7] = assay: Antibacterial activity against Enterococcus faecalis at 900 ug/ml after overnight incubation
Streptococcus pyogenes [8] = assay: Antibacterial activity against Streptococcus pyogenes at 600 ug/ml after overnight incubation
Staphylococcus aureus [9] = assay: Antibacterial activity against Staphylococcus aureus at 600 ug/ml after overnight incubation
Exserohilum rostratum [10] = assay: Antifungal activity against Setosphaeria rostrata at 300 ug/ml after 48 hr
Escherichia coli [11] = assay: Antibacterial activity against Escherichia coli at 600 ug/ml after overnight incubation
Enterococcus faecalis [12] = assay: Antibacterial activity against Enterococcus faecalis at 600 ug/ml after overnight incubation
Exserohilum rostratum [13] = assay: Antifungal activity against Setosphaeria rostrata at 600 ug/ml after 48 hr
Colletotrichum falcatum [14] = assay: Antifungal activity against Glomerella tucumanensis at 600 ug/ml after 48 hr
Bacillus pumilus [15] = assay: Antibacterial activity against Bacillus pumilus at 600 ug/ml after overnight incubation
Bacillus pumilus [16] = assay: Antibacterial activity against Bacillus pumilus at 900 ug/ml after overnight incubation
Bacillus subtilis [17] = assay: Antibacterial activity against Bacillus subtilis at 900 ug/ml after overnight incubation
Priestia megaterium [18] = assay: Antibacterial activity against Bacillus megaterium at 600 ug/ml after overnight incubation
Staphylococcus aureus [19] = assay: Antibacterial activity against Staphylococcus aureus at 900 ug/ml after overnight incubation
Streptococcus pyogenes [20] = assay: Antibacterial activity against Streptococcus pyogenes at 900 ug/ml after overnight incubation
Klebsiella aerogenes [21] = assay: Antibacterial activity against Enterobacter aerogenes at 600 ug/ml after overnight incubation
Klebsiella aerogenes [22] = assay: Antibacterial activity against Enterobacter aerogenes at 900 ug/ml after overnight incubation
Exserohilum rostratum [23] = assay: Antifungal activity against Setosphaeria rostrata at 1200 ug/ml after 48 hr
Proteus vulgaris [24] = assay: Antibacterial activity against Proteus vulgaris at 900 ug/ml after overnight incubation
Candida albicans [25] = assay: Antifungal activity against Candida albicans at 300 ug/ml after 48 hr
Colletotrichum falcatum [26] = assay: Antifungal activity against Glomerella tucumanensis at 300 ug/ml after 48 hr
Colletotrichum falcatum [27] = assay: Antifungal activity against Glomerella tucumanensis at 1200 ug/ml after 48 hr
Klebsiella pneumoniae [28] = assay: Antibacterial activity against Klebsiella pneumoniae at 600 ug/ml after overnight incubation
Fusarium oxysporum [29] = assay: Antifungal activity against Fusarium oxysporum at 900 ug/ml after 48 hr
Candida albicans [30] = assay: Antifungal activity against Candida albicans at 1200 ug/ml after 48 hr
Colletotrichum falcatum [31] = assay: Antifungal activity against Glomerella tucumanensis at 900 ug/ml after 48 hr
Candida albicans [32] = assay: Antifungal activity against Candida albicans at 600 ug/ml after 48 hr
Fusarium oxysporum [33] = assay: Antifungal activity against Fusarium oxysporum at 300 ug/ml after 48 hr
Proteus vulgaris [34] = assay: Antibacterial activity against Proteus vulgaris at 600 ug/ml after overnight incubation
Fusarium oxysporum [35] = assay: Antifungal activity against Fusarium oxysporum at 600 ug/ml after 48 hr
Bacillus subtilis [36] = assay: Antibacterial activity against Bacillus subtilis at 600 ug/ml after overnight incubation

Row | SMILES | zone of inhibition at 900 µg/mL (Escherichia coli [1]) | zone of inhibition at 900 µg/mL (Klebsiella pneumoniae [2]) | zone of inhibition at 900 µg/mL (Priestia megaterium [3]) | zone of inhibition at 900 µg/mL (Candida albicans [4]) | zone of inhibition at 1200 µg/mL (Fusarium oxysporum [5]) | zone of inhibition at 900 µg/mL (Exserohilum rostratum [6]) | zone of inhibition at 900 µg/mL (Enterococcus faecalis [7]) | zone of inhibition at 600 µg/mL (Streptococcus pyogenes [8]) | zone of inhibition at 600 µg/mL (Staphylococcus aureus [9]) | zone of inhibition at 300 µg/mL (Exserohilum rostratum [10]) | zone of inhibition at 600 µg/mL (Escherichia coli [11]) | zone of inhibition at 600 µg/mL (Enterococcus faecalis [12]) | zone of inhibition at 600 µg/mL (Exserohilum rostratum [13]) | zone of inhibition at 600 µg/mL (Colletotrichum falcatum [14]) | zone of inhibition at 600 µg/mL (Bacillus pumilus [15]) | zone of inhibition at 900 µg/mL (Bacillus pumilus [16]) | zone of inhibition at 900 µg/mL (Bacillus subtilis [17]) | zone of inhibition at 600 µg/mL (Priestia megaterium [18]) | zone of inhibition at 900 µg/mL (Staphylococcus aureus [19]) | zone of inhibition at 900 µg/mL (Streptococcus pyogenes [20]) | other results
1 | Cc1ccc(-c2nnc(CN3CCC(n4nc5ccccc5n4)CC3)o2)cc1Br | 11.1 mm | 12.8 mm | 9.85 mm | 9.26 mm | 26.9 mm | 9.86 mm | 5.56 mm | 2.25 mm | 5.85 mm | 3.25 mm | 6.85 mm | 3.35 mm | 5.21 mm | 7.8 mm | 3.32 mm | 6.56 mm | 9.05 mm | 5.85 mm | 11.2 mm | 5.56 mm | zone of inhibition at 600 µg/mL (Klebsiella aerogenes [21]): 3.55 mm; zone of inhibition at 900 µg/mL (Klebsiella aerogenes [22]): 7.05 mm; zone of inhibition at 1200 µg/mL (Exserohilum rostratum [23]): 17.2 mm; zone of inhibition at 900 µg/mL (Proteus vulgaris [24]): 10.1 mm; zone of inhibition at 300 µg/mL (Candida albicans [25]): 3.23 mm; zone of inhibition at 300 µg/mL (Colletotrichum falcatum [26]): 4.22 mm; zone of inhibition at 1200 µg/mL (Colletotrichum falcatum [27]): 25.6 mm; zone of inhibition at 600 µg/mL (Klebsiella pneumoniae [28]): 6.02 mm; zone of inhibition at 900 µg/mL (Fusarium oxysporum [29]): 13.2 mm; zone of inhibition at 1200 µg/mL (Candida albicans [30]): 17.8 mm; zone of inhibition at 900 µg/mL (Colletotrichum falcatum [31]): 14 mm; zone of inhibition at 600 µg/mL (Candida albicans [32]): 5.51 mm; zone of inhibition at 300 µg/mL (Fusarium oxysporum [33]): 4.21 mm; zone of inhibition at 600 µg/mL (Proteus vulgaris [34]): 4.85 mm; zone of inhibition at 600 µg/mL (Fusarium oxysporum [35]): 7.36 mm; zone of inhibition at 600 µg/mL (Bacillus subtilis [36]): 4.25 mm
2 | Brc1cccc(-c2nnc(CN3CCC(n4nc5ccccc5n4)CC3)o2)c1 | 6.45 mm | 7.62 mm | 7.25 mm | 7.86 mm | 29.9 mm | 7.96 mm | 5.8 mm | 3.85 mm | 4.46 mm | 3.98 mm | 3.25 mm | 3.21 mm | 4.01 mm | 5.01 mm | 4.25 mm | 8.12 mm | 9.25 mm | 3.26 mm | 8.25 mm | 7.25 mm | zone of inhibition at 600 µg/mL (Klebsiella aerogenes [21]): 5.85 mm; zone of inhibition at 900 µg/mL (Klebsiella aerogenes [22]): 11.6 mm; zone of inhibition at 1200 µg/mL (Exserohilum rostratum [23]): 15.1 mm; zone of inhibition at 900 µg/mL (Proteus vulgaris [24]): 5.03 mm; zone of inhibition at 300 µg/mL (Candida albicans [25]): 2.5 mm; zone of inhibition at 300 µg/mL (Colletotrichum falcatum [26]): 2.95 mm; zone of inhibition at 1200 µg/mL (Colletotrichum falcatum [27]): 17.8 mm; zone of inhibition at 600 µg/mL (Klebsiella pneumoniae [28]): 3.25 mm; zone of inhibition at 900 µg/mL (Fusarium oxysporum [29]): 15.8 mm; zone of inhibition at 1200 µg/mL (Candida albicans [30]): 16.8 mm; zone of inhibition at 900 µg/mL (Colletotrichum falcatum [31]): 9.25 mm; zone of inhibition at 600 µg/mL (Candida albicans [32]): 4.03 mm; zone of inhibition at 300 µg/mL (Fusarium oxysporum [33]): 3.55 mm; zone of inhibition at 600 µg/mL (Proteus vulgaris [34]): 2.25 mm; zone of inhibition at 600 µg/mL (Fusarium oxysporum [35]): 7.86 mm; zone of inhibition at 600 µg/mL (Bacillus subtilis [36]): 4.25 mm
